In patent publication US11591300B2, “Oxazole containing compounds as activators of IDO1 and AhR” (The Brigham and Women's Hospital, Inc., priority 2017, dated 2023):

Legend:
[1] = system: MODE-K cells; experiment: CD1d-restricted IL-10 production in MODE-K:NKT cell hybridoma co-culture; type: cell-based, mouse
[2] = system: primary hepatocytes; experiment: IL-10 production from primary hepatocytes co-cultured with 24.7 iNKT hybridoma; settings: response to iNKT cells in the presence of α-GC
[3] = target: recombinant IDO1 (Homo sapiens, UniProt P14902); experiment: Recombinant IDO1 conversion of L-tryptophan to formyl-kyneurenine; type: biochemical; settings: compared to control (TMC) or vehicle
[4] = system: MODE-K cells; experiment: Surface CD1d loaded with α-GC (L363 antibody staining) in MODE-K cells; type: cell-based, mouse; settings: AhR siRNA
Excerpt: In light of the decreased MTP expression observed in oxazolone treated IECs (FIG. 1B) and given that MTP loss alters the ability of CD1d to acquire exogenous antigens, such as α-GC, and CD1d elicited IL-10 responses by epithelial cells (Dougan et al. 2005, Dougan et al. 2007, Zeissig et al 2017, Sagiv et al. 2007, Brozovic et al. 2004, Olszak et al. 2014), it was investigated whether CD1d expression and lipid loading on oxazolone conditioned IECs.

[5] = target: DNA gyrase (Escherichia coli, UniProt P0AES4+P0AES6); settings: in vitro; literature (Collin et al. 2013; Yorgey et al. 1994, Li et al. 1996); cited from earlier work
[6] = system: C57Bl/6 mice; experiment: Intra-rectal administration, colonic inflammation in vivo; set-up: species or system mouse
Experimental: It was tested whether a dietary sourced minimal oxazole structure was sufficient to induce intestinal inflammation in vivo. […] To confirm this, the ability of oxazolone skin pre-sensitization to affect the responses to rectal challenge with TMO and vice-versa (FIG. 9D).
Next, it was tested whether B17 microcin derivatives could induce intestinal inflammation in vivo. Therefore, adequate quantities of a minimal B17 derivative (termed frag-oz, FIG. 2D) were synthesized to perform in vivo experiments and challenged animals via intra-rectal administration. […] These studies identify an oxazole containing microbial mimic that promotes CD1d-dependent intestinal inflammation independent of its classical anti-microbial activity.
These studies reveal a novel role for epithelial derived AhR signals in promoting mucosal inflammation when exposed to OxC.

[7] = target: T1, human IDO1(hIDO1) (Homo sapiens, UniProt P14902); experiment: In vitro screening assay for IDO1 enhancers; type: biochemical
T1 construct: made in house
Experimental: An in vitro screen for IDO1 enhancers was developed based on the following categories: Synthetic, dietary, and microbial compounds with structural similarity to oxazole template.
SDS-PAGE gel under reducing conditions showing that hIDO1 was purified to >95% purity after HiTrap HP chelating column.
HiPrep 16/60 Sephacryl S-200 HR column (GE Healthcare Life Sciences) size-exclusion chromatography in a buffer containing 10 mM HEPES buffer, 150 mM NaCl pH 7.0 of hIDO1 showing single peak and peak maximum of purified protein at 126.2 minutes.
Sizing fractions a3-a11 were checked for Heme absorbance at 402 and 280 nm. Fractions showing >2.0 Heme ratio were pooled and concentrated, and final 1.5 mg/ml concentrated protein was used for final bound heme estimation. A ratio of 2.22 at 402/280 nm confirmed heme binding to purified recombinant hIDO1 protein.

[8] = system: IECs; experiment: LC-MS of deuterated L-trp (D5-Trp) metabolites in IEC lysates; type: cell-based; settings: within 6 hours of exposure
Experimental: IDO1 is a rate-limiting enzyme involved in tryptophan catabolism that generates formyl-kyneurenine which can be further metabolized into a variety of AhR agonists (Higuchi and Hayaishi Arch Biochem Biophys 1967, Nguyen and Bradfield 2008, Zelante et al. 2014). […] To specifically identify these tryptophan derived products, IECs were cultured with deuterated L-trp (D5-Trp) and performed high performance liquid chromatography mass spectrometry (LC-MS) on lysates stimulated with oxazolone, TMO, frag-oz or TMC control (FIG. 5C). […] Taken together these latter studies are consistent with a model in which exposure of IECs to oxazole containing compounds leads to the activation of IDO1 and generation of tryptophan-derived metabolites that induce the AhR pathway to downregulate CD1d-restricted responses associated with the production of IL-10 (FIG. 6).

[9] = system: MODE-K cells; experiment: Relative transcript abundance of target genes in MODE-K cells conditioned with compounds
Excerpt: 4-ethoxymethylene-2-phenyl-2-oxazol-5-one, (referred to as oxazolone, FIG. 1A) has been widely utilized in models of contact hypersensitivity and when applied to the mucosa has been proposed to cause colitis through its properties as a hapten (Gorbachev and Fairchild 2001). However to date there is limited evidence for hapten-specific antibody production or responses following topical oxazolone sensitization or hapten modified autologous proteins or luminal antigens identified at mucosal sites (Singleton et al. 2016, Yanaba et al. 2008, Wirtz et al. 2007). […] It was then determined whether oxazolone could affect the expression of these transcripts in the intestinal epithelium in a cell intrinsic manner by directly stimulating an immortalized intestinal epithelial cell line (IEC) derived from mouse small intestine, MODE-K, with oxazolone.
To test this, a systematic in vitro system was devised to assess transcriptional and CD1d-restricted responses in IECs in response to stimulation with dietary OxC structures, including 2,4,5-trimethyl-2,5-dihydro-1,3-oxazole (referred to as TMO, FIG. 1A) found in coffee, peanuts, meats and utilized as a food additive, which lacks the 2-phenyl ring, 5-ketone, and 4-ethoxymethylene present in oxazolone (Vitzthum et al. 1975, Stoffesima et al. 1968, Lee et al. 1981, Chang et al. 1968, Ho and Hartman 1968).

[10] = AhrΔIEC relative to Ahrfl/fl mice, intra-rectal challenge
[11] = IEC enriched colonic fractions after intra-rectal administration
[12] = intra-rectal administration, wildtype

Sequence of DNA gyrase (P0AES4 whole entry, one chain of several): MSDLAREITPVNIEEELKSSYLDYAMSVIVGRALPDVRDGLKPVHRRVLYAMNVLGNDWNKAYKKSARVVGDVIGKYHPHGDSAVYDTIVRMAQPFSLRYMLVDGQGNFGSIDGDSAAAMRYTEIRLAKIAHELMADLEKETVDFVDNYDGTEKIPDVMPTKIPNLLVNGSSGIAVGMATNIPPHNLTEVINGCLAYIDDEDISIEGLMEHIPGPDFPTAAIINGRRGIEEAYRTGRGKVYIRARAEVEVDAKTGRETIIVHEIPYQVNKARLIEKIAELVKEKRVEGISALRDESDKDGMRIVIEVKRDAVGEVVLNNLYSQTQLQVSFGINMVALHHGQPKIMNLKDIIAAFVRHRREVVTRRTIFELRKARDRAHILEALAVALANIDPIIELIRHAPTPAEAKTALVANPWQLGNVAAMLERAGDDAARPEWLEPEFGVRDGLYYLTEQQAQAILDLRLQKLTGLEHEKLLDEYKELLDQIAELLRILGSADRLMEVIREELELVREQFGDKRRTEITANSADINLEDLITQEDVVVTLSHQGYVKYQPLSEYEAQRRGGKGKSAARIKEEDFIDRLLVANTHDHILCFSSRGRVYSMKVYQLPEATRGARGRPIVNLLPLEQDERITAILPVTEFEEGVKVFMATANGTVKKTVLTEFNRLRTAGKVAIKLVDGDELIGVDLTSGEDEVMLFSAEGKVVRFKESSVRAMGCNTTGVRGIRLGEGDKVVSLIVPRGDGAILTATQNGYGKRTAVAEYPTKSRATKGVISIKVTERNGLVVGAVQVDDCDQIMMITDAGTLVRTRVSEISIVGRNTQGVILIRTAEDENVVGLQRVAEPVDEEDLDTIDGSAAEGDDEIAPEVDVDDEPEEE
Sequence of recombinant IDO1 (P14902 whole entry, species assumed): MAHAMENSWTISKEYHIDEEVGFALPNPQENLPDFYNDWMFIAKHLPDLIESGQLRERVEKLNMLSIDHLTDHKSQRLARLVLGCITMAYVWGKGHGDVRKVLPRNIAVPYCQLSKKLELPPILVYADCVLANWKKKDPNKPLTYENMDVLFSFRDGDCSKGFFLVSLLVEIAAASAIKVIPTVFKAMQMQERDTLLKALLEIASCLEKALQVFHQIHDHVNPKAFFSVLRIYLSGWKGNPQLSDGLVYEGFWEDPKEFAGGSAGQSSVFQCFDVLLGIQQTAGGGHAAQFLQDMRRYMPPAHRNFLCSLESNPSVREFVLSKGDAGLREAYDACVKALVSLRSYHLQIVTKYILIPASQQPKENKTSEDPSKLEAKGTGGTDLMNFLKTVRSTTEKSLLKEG
T1 sequence (P14902 whole entry): as the sequence (P14902 whole entry, species assumed) above

CC(=O)NCc1nc(C(N)=O)co1 [frag-oz]
compound induced inhibition of CD1d-restricted IL-10 production when AhR expression is silenced ([1]; AhR siRNA, IEC:iNKT cell co-cultures): reversed | CD1d-restricted IL-10 production ([1]; IECs cultured in tryptophan-deficient media): no longer attenuated | IL-10 production ([1]; tryptophan-deficient conditions supplemented with kyneurenic acid): decreased IL-10 production | decrease of IL-10 production when AhR was silenced ([1]; tryptophan-deficient conditions supplemented with kyneurenic acid, AhR siRNA): reduced when AhR was silenced | CD1d-restricted IL-10 production ([1]; tryptophan-deficient media supplemented with exogenous L-tryptophan): attenuation of CD1d-restricted IL-10 production | compound induced inhibition of IL-10 production in hepatocytes from Ahr−/− mice [2]: resistance | ability of IDO1 to convert tryptophan to formyl-kyneurenine [3]: enhanced | compound induced reduction of cell surface CD1d lipid antigen loading when AhR expression is silenced [4]: reversed | anti-gyrase activity [5]: no anti-gyrase activity | IL-10 production in colonic explants ([6]; AhrΔIEC compared to wildtype controls, after intra-rectal challenge): elevated IL-10 production | host protection, disease manifestations [6, 10]: conferred host protection | weight loss [6, 10]: diminished weight loss | Cyp1a1 transcripts in IEC in vivo [6, 11]: induction of Cyp1a1 | Mttp transcripts in IEC in vivo [6, 11]: Decreased Mttp levels | inflammation in animals under GF conditions ([6]; germ free animals): induce inflammation | weight loss in GF animals compared to SPF animals ([6]; germ free vs SPF, intra-rectal challenge): increased weight loss | histopathology in GF animals ([6]; germ free, intra-rectal challenge): severe histopathology | Th1 and Th2 cytokines (IL-13, IFN-γ) from colon explants [6, 12]: induction of both Th1 and 2 cytokines | histological pathology of the colon [6, 12]: CD1d-dependent pathology was observed | IDO1 enzymatic activity [7]: IDO1 activators | metabolite that D5-Trp was further metabolized to upon stimulation [8]: xanthurenic acid | Cyp1a1 transcripts [9]: induced expression of these genes in vitro and in vivo | Ido1 transcripts ([9]; MODE-K cells conditioned with compound, normalized to β-actin): induced expression of these genes in vitro and in vivo
